pIC50: −log10 of the molar value.
Test system: 857933-349-R-J2-PDC complex spheroid viability
Assay: Anticancer human tumor 857933-349-R-J2-PDC patient-derived colon adenocarcinoma cell line growth inhibition [POLQ]
Details: for pIC50: curve of first compound; for viability, T/C: stronger effect = lower value
Procedure: Multicellular complex tumor spheroid response to Polymerase (POL) inhibitors (novobiocin, ART-558, RP6685) in combination with a variety of drugs and investigational agents in selected tumor cell lines
The POL inhibitors (novobiocin, ART-558, and RP6685) were evaluated both individually and in combination with standard of care and investigational anticancer small molecules within a complex spheroid model of solid tumors. . Complex spheroids include a stromal component modeled by human endothelial cells (HUVEC) and fibroblasts modeled by human mesenchymal stem cells (MSCs). The concentration ranges selected for each drug and investigational agent were based upon clinically achievable concentrations if the clinical Cmax of the agent was known.
Compounds. The drugs and investigational agents: novobiocin (NSC847541), ART-558 (NSC835418), RP-6685 (NSC848927), peposertib (NSC802822), ceralasertib (NSC780249), elimusertib (NSC800525), camonsertib (NSC841442), AZD-1390 (NSC803789), olaparib (NSC753686), talazoparib (NSC767125), rucaparib (NSC756644), sotorasib (NSC818433), MRTX-1133 (NSC836407), SN-38 (NSC673596), topotecan (NSC609699), epotoside (NSC141540), doxorubicin (NSC123127), gemcitabine (NSC613327), 5-fluorouracil (NSC19893), paclitaxel (NSC125973), vemurafenib (NSC761431), MSA-2 (NSC828583), SN-011 (NSC837082), adavosertib (NSC754352), prexasertib (NSC758257), carboplatin (NSC241240) and oxaliplatin (NSC266046), were obtained from the National Cancer Institute (NCI) Developmental Therapeutics Program Chemical Repository (21). The FDA-approved anticancer drug set is available from the Developmental Therapeutics Program at https://dtp.cancer.gov/organization/dscb/obtaining/. […] The stock solutions were prepared in dimethyl sulfoxide (DMSO, Sigma-Aldrich, St. Louis, MO, cat. D2650), except for the platinum compounds which were prepared in saline (Quality Biological, Gaithersburg, MD, cat. 114-055-101), at 800-fold the tested concentration and stored at -70 degrees C prior to their use. All drugs and investigational agents were tested over a range starting from a high concentration at or near the clinical Cmax and decreasing in half-log increments. If the clinical Cmax for an agent had not been determined, the highest concentration tested was 10 microM, except for SN-38, which was tested at a high concentration of 1 microM.
Cell Culture. All cells were maintained in an incubator at 37 degrees C and 5% CO2 with 95% humidity. The PDC lines were cultured according to standard operating procedures established by the NCI PDMR (https://pdmr.cancer.gov). Table 3 of the manuscript, lists the cell lines along with the number of the three cell types plated to form the mct-spheroids and media for tumor cell growth. After thawing, all PDC lines, except 997537-175-T-J1-PDC and 415267-285-R-J2-PDC, were cultured in Matrigel-coated flasks prepared with a working solution of 1X Ham's F-12 nutrient mix, without supplementation (Thermo Fisher Scientific, cat. 11765054), 100 U/mL penicillin-streptomycin (Thermo Fisher Scientific, cat. 15140122), and 2.5% Matrigel (Corning Inc., Corning, NY, cat. 354248) for the first three passages. The two PDC lines 997537-175-T-J1-PDC and 415267-285-R-J2-PDC were cultured on uncoated flasks. The 857933-349-R-J2-PDC line was cultured in 6C/Colon 1B media containing advanced DMEM/F-12 (Thermo Fisher Scientific, cat. 12634028), 10 mM HEPES (Thermo Fisher Scientific, cat. 15630080), 1X GlutaMAX supplement (Thermo Fisher Scientific, cat. 35050061), 0.1 mg/mL primocin (InvivoGen, San Diego, CA, cat. ant-pm-2), 10% defined fetal bovine serum, heat inactivated (HyClone Laboratories Inc., Logan, UT, cat. SH30070.03HI), 50% L-WRN conditioned media (ATCC, cat. CRL-3276), 1.25 mM N-Acetyl-L-cysteine (Sigma-Aldrich, cat. A9165), 10 mM nicotinamide (Sigma-Aldrich, cat. N0636), 1X B-27 supplement (Thermo Fisher Scientific, cat. 17504044), 1X N-2 supplement (Thermo Fisher Scientific, cat. […]

[1] = second compound 0.0316 µM, first compound 0.0316 µM
[2] = second compound 0.0316 µM, first compound 0.1 µM
[3] = second compound 0.0316 µM, first compound 0.316 µM
[4] = second compound 0.0316 µM, first compound 1 µM
[5] = second compound 0.1 µM, first compound 0.0316 µM
[6] = second compound 0.1 µM, first compound 0.1 µM
[7] = second compound 0.1 µM, first compound 0.316 µM
[8] = second compound 0.1 µM, first compound 1 µM
[9] = second compound 0.316 µM, first compound 0.0316 µM
[10] = second compound 0.316 µM, first compound 0.1 µM
[11] = second compound 0.316 µM, first compound 0.316 µM
[12] = second compound 0.316 µM, first compound 1 µM
[13] = second compound 1 µM, first compound 0.0316 µM
[14] = second compound 1 µM, first compound 0.1 µM
[15] = second compound 1 µM, first compound 0.316 µM
[16] = second compound 1 µM, first compound 1 µM
[17] = second compound 3.16 µM, first compound 0.0316 µM
[18] = second compound 3.16 µM, first compound 0.1 µM
[19] = second compound 3.16 µM, first compound 0.316 µM
[20] = second compound 3.16 µM, first compound 1 µM
[21] = second compound 10 µM, first compound 0.0316 µM
[22] = second compound 10 µM, first compound 0.1 µM
[23] = second compound 10 µM, first compound 0.316 µM
[24] = second compound 10 µM, first compound 1 µM
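Further: spheroids exposed to compounds for seven days before readout.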

## COc1cc2cc(C(=O)CCC(=O)O)sc2cc1OC + Nc1ccc(C#CCN(C(=O)Cc2ncc(C(F)(F)F)cc2C(F)(F)F)c2ccc(F)cc2)nn1
Second compound 0.0316 µM
  pIC50: < 5.00
Second compound 0.1 µM
  pIC50: < 5.00
Second compound 0.316 µM
  pIC50: < 5.00
Second compound 1 µM
  pIC50: < 5.00
Second compound 3.16 µM
  pIC50: < 5.00
Second compound 10 µM
  pIC50: < 5.00
[1]
  viability, T/C: 103%
[2]
  viability, T/C: 110%
[3]
  viability, T/C: 108%
[4]
  viability, T/C: 111%
Second compound 0.0316 µM, first compound 3.16 µM
  viability, T/C: 100%
Second compound 0.0316 µM, first compound 10 µM
  viability, T/C: 104%
[5]
  viability, T/C: 100%
[6]
  viability, T/C: 106%
[7]
  viability, T/C: 101%
[8]
  viability, T/C: 110%
Second compound 0.1 µM, first compound 3.16 µM
  viability, T/C: 108%
Second compound 0.1 µM, first compound 10 µM
  viability, T/C: 97.5%
[9]
  viability, T/C: 96.5%
[10]
  viability, T/C: 97.3%
[11]
  viability, T/C: 98.2%
[12]
  viability, T/C: 92.4%
Second compound 0.316 µM, first compound 3.16 µM
  viability, T/C: 106%
Second compound 0.316 µM, first compound 10 µM
  viability, T/C: 96%
[13]
  viability, T/C: 103%
[14]
  viability, T/C: 93.3%
[15]
  viability, T/C: 97.5%
[16]
  viability, T/C: 109%
Second compound 1 µM, first compound 3.16 µM
  viability, T/C: 110%
Second compound 1 µM, first compound 10 µM
  viability, T/C: 89.1%
[17]
  viability, T/C: 102%
[18]
  viability, T/C: 98.7%
[19]
  viability, T/C: 90.7%
[20]
  viability, T/C: 89.7%
Second compound 3.16 µM, first compound 3.16 µM
  viability, T/C: 104%
Second compound 3.16 µM, first compound 10 µM
  viability, T/C: 103%
[21]
  viability, T/C: 93.7%
[22]
  viability, T/C: 78.3%
[23]
  viability, T/C: 98.9%
[24]
  viability, T/C: 97.6%
Second compound 10 µM, first compound 3.16 µM
  viability, T/C: 108%
Second compound 10 µM, first compound 10 µM
  viability, T/C: 78.4%

## COc1cccc(OCCCN)c1-c1cc(Nc2cnc(C#N)cn2)n[nH]1 + Nc1ccc(C#CCN(C(=O)Cc2ncc(C(F)(F)F)cc2C(F)(F)F)c2ccc(F)cc2)nn1
Second compound 0.0316 µM
  pIC50: < 6.00
Second compound 0.1 µM
  pIC50: 6.16
Second compound 0.316 µM
  pIC50: < 6.00
Second compound 1 µM
  pIC50: 6.17
Second compound 3.16 µM
  pIC50: < 6.00
Second compound 10 µM
  pIC50: < 6.00
Second compound 0.0316 µM, first compound 0.00316 µM
  viability, T/C: 101%
Second compound 0.0316 µM, first compound 0.01 µM
  viability, T/C: 113%
[1]
  viability, T/C: 83.8%
[2]
  viability, T/C: 68.4%
[3]
  viability, T/C: 58.9%
[4]
  viability, T/C: 50.2%
Second compound 0.1 µM, first compound 0.00316 µM
  viability, T/C: 104%
Second compound 0.1 µM, first compound 0.01 µM
  viability, T/C: 107%
[5]
  viability, T/C: 76.9%
[6]
  viability, T/C: 88.8%
[7]
  viability, T/C: 58.2%
[8]
  viability, T/C: 44.3%
Second compound 0.316 µM, first compound 0.00316 µM
  viability, T/C: 105%
Second compound 0.316 µM, first compound 0.01 µM
  viability, T/C: 101%
[9]
  viability, T/C: 88.2%
[10]
  viability, T/C: 62.1%
[11]
  viability, T/C: 57.8%
[12]
  viability, T/C: 54.4%
Second compound 1 µM, first compound 0.00316 µM
  viability, T/C: 109%
Second compound 1 µM, first compound 0.01 µM
  viability, T/C: 88.5%
[13]
  viability, T/C: 80.5%
[14]
  viability, T/C: 70%
[15]
  viability, T/C: 53.9%
[16]
  viability, T/C: 47.1%
Second compound 3.16 µM, first compound 0.00316 µM
  viability, T/C: 101%
Second compound 3.16 µM, first compound 0.01 µM
  viability, T/C: 96.9%
[17]
  viability, T/C: 81.9%
[18]
  viability, T/C: 66.8%
[19]
  viability, T/C: 51.2%
[20]
  viability, T/C: 54.9%
Second compound 10 µM, first compound 0.00316 µM
  viability, T/C: 86.8%
Second compound 10 µM, first compound 0.01 µM
  viability, T/C: 102%
[21]
  viability, T/C: 76.9%
[22]
  viability, T/C: 69.8%
[23]
  viability, T/C: 57%
[24]
  viability, T/C: 54%
